Source: patent US8206983B2, “In vitro methods for the induction and maintenance of plant cell lines as single suspension cells with intact cell walls” (Dow AgroSciences, LLC., priority 2006, dated 2012)

Tests used:
Tobacco BY2 suspension = test: BY2 single cell production with diphenylpyrazole; assay type: cell-based
Experimental: Production of GFP expressing single cells. Single cells were produced by adding 1 uM concentration of the compound DDP (diphenylpyrazole) during the initiation of the 7 d culture cycle in the LSBY2-Gly-B15 medium along with the addition of 0.5 ml Pack Cell Volume (PCV) of GFP expressing suspension aggregates at the stationary phase. Alternately, a 25-ml of suspension aggregates were transferred to a 25-ml of fresh LSBY2-Gly-B15 suspension medium by adding 50 ul of […] diphenylpyrazole stock solution dissolved in DMSO to provide a 1 uM final concentration in the suspension. Thus single cells could be produced in a much shorter cycle of only 3.5 days. The LSBY215 medium always contain 15 mg/l glufosinate ammonium for selection
Initiation of single cells in preparation for plastid transformation. Four milliliters of Tobacco BY2 suspension (at the stationary phase growth maintained on a 7-d cycle) was added to 26 mL of fresh medium that composed of either Medium A [LS salts (PhytoTechnology Laboratories, L689), 120 g/L sucrose, 1 mg/L nicotinic acid, 1 mg/L pyridoxine HCl, 10 mg/L thiamine HCl, and 20 nM diphenylpyrazole (DPP)] or Medium B [LS salts, 120 g/L sucrose, 1 mg/L nicotinic acid, 1 mg/L pyridoxine HCl, 10 mg/L thiamine HCl, 2.5 mg/L benzylaminopurine (BAP) and 20 nM DPP] contained in a 125 mL shake flask with a foam stopper. […]

BY2 cells = test: Single cell production by MTI in BY2 cells in glycerol medium; assay type: cell-based, tobacco; conditions: glycerol as total carbon source
Experimental: The effects of Microtubule inhibitors (MTI) on tobacco cell growth in suspension culture were examined. Day seven stationary phase cells (1 ml) were transferred to medium (50 ml) in 250 ml shake flasks (Bokros et al., 1993) containing different concentrations (25 to 1000 nM) of MTI and were grown in cultures for 7 days in dark at 25° C. Both the control and MTI-containing flasks contained a final concentration of 0.5-0.1% (v/v) DMSO. The growth of these chemicals was evaluated in EP12 medium for BY2 cells and NT1B medium for BTI-NT1 cells were the carbon source is substituted with 3% glycerol. The response of these cells was compared with the same medium composition but with 3% sucrose as the Carbon source.

BY2 suspension cells = test: Effects of colchicine on growth and cell separation of BY2 suspension cells; assay type: cell-based, tobacco
Text: BY2 suspension-cultured cells were obtained from Japan tobacco and maintained in LSBY2 medium in a 7 day cycle. Jimsonweed suspension and Pettite Havana tobacco suspensions were initiated from callus initiated at DAS and Xanthi suspensions were procured as a sample from Professor Jack Widholm from UIUC, IL. JT-NT1 suspension cells, obtained from Washington University that are maintained in NT1B medium in 7 day cycle were used only for the pectin degradation enzyme study to separate the cells into single cells. The cells were cultured in shake flasks at 25-28° C. in dark on orbital shakers at 150 rpm. […] Stock concentrations of both the tubulin polymerization inhibitors used in this investigation were dissolved in DMSO to prepare a 0.5 M stock solution. The concentration tested for the pectinase and pectolyase enzymes were in the range of 0.0005% to 0.005%. The tobacco suspension cell lines NT-1 and BY-2, for example, are suitable for the practice of the present invention. BY-2 cells are commercially available and are available according to Nagata et al, for example (Nagata, T., Nemoto, Y., and Hasezawa, S. [1992], Tobacco BY-2 cell line as the “HeLa” cell in the cell biology of higher plants. Int. Rev. Cytol. 132: 1-30). NT-1 cells were originally developed from Nicotiana tabacum L. cv. bright yellow 2. The NT-1 cell line is widely used and readily available; though, any tobacco suspension cell line is consistent with the practice of the invention. It is worth noting that the origins of the NT-1 cell line are unclear. Moreover, the cell line appears variable and is prone to change in response to culture conditions. NT-1 cells suitable for use in the examples below are available from the American Type Culture Collection under accession number ATCC No. 74840. See also U.S. Pat. No. 6,140,075.
Cell expansion and separation were observed by light microscopy (with Nomarski and dark field optics). Spherical cells and single cells were counted by using a hemacytometer to determine the degree of cell expansion and separation, respectively. Cell numbers in aggregates were determined by treating with 5% (wt/vol) chromium trioxide for 16 hr and counting cells (Henshaw et. al, 1966). Cell viability was determined by staining cells (Yokoyama et. al, 1997) with fluorescein diacetate (FDA) and propidium iodide (PI) using a fluorescent microscope (Zeiss Photomicroscope). In order to determine the presence of the cell wall in this single cell cultures optical brightener was used. Calcafluor obtained from Sigma, which is a specific fluorescent dye for cellulose is used in this study, and the cellulose-Calcafluor complexing was observed by fluorescence microscopy (Zeiss Photomicroscope). […]

soybean suspension cells = conditions: cited from earlier work

SMILES | single cell production (Tobacco BY2 suspension; 20 nM, Medium A and Medium B, 7 days) | cells with single nucleus with one or two nucleoli (Tobacco BY2 suspension; 1 uM, 3.5 days of culture, LSBY2 Glycerol medium) | concentration effective for the production of single cells (BY2 cells) | single suspension cells (BY2 suspension cells; 1 mM, 7 days) | amount of cells compared with control cultures (BY2 suspension cells; 1 mM, after 7 days) | suspension cells seen as single intact cells (BY2 suspension cells; 7 days in 1 mM, then sub-cultured to colchicine-free medium) | cell viability (FDA and PI) (BY2 suspension cells; BY2-Variant, 1 mM, 7 d) | viable cells (soybean suspension cells; 1 mM colchicine) | concentration in culture medium for cell separation (soybean suspension cells)
CCOC(=O)COc1nn(-c2ccccc2)c(-c2ccccc2)c1Cl [DAS-PMTI-1] | produced single cells | 90% | 5 to 25 nM |  |  |  |  |  | 
COc1cc2c(c(OC)c1OC)-c1ccc(OC)c(=O)cc1[C@@H](NC(C)=O)CC2 [Colchicine] |  |  |  | high degree of single suspension cells | about equal amounts | ~90% | high viability | 44.8% | 0.1 to 1.0 mM
